The results in this text go back to patent publication US20240059740A1, “CYCLIC PEPTIDES AND USES THEREOF” (PRE[…] INC., priority 2020, published 2024).

Assay [1] deals with T1, recombinant MMP-2 (Homo sapiens, UniProt P08253).
T1 construct: purchased ab139446
T1 sequence (P08253 110-660): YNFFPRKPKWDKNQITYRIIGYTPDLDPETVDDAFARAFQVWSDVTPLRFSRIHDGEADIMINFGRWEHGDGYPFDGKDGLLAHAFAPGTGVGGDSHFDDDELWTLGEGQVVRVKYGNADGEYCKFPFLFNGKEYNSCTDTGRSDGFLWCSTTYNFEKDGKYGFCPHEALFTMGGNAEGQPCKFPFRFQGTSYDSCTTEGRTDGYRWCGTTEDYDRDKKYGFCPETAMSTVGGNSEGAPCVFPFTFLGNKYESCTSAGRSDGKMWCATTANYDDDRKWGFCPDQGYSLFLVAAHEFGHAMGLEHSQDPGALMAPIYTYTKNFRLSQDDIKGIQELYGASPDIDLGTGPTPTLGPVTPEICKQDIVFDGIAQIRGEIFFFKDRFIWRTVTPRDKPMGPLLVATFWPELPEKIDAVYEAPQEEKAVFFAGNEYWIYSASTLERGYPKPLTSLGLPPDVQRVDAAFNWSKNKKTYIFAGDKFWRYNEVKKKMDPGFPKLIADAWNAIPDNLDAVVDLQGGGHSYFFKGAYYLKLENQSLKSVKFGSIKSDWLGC
Nature of the assay: MMP-2 Inhibitor Screening Assay Kit (colorimetric). Format: biochemical. The settings on record: lower value = higher inhibitory activity. How it is done:
MMP-2 is an important target for inhibitor screening due to its involvement in cancer growth, angiogenesis, and metastasis. The MMP-2 screening assay was carried out with a commercially available MMP-2 Inhibitor Screening Assay Kit (Colorimetric, Catalog: ab139446) based on the manufacturers protocol. This assay is based on quantification of recombinant MMP-2 activity using a colorimetric assay (MMP-2 degrades a chromogenic substrate). The assay provides NNGH (N-isobutyl-N-(4-methoxyphenylsulfonyl) glycyl hydroxamic acid), a small molecule inhibitor, as a positive control (NNGH). […] Each determination was run in duplicate.
% Inhibition rate=(Vinhibitor/Vcontrol)×100
Briefly, MMP Substrate and MMP Inhibitor were warmed to room temperature to thaw DMSO. MMP Inhibitor (NNGH), MMP-2 substrate and MMP-2 enzyme were diluted with assay buffer to required concentration. 20 μL of MMP-2 enzyme and MMP-2 inhibitor (peptides, Chlorotoxin and NNGH) was added, then 50 μL of assay buffer was added and the reaction mixture incubated at 37° C. for 1 h. After incubation, 10 μL of MMP Substrate was added to start reaction. The reactions were continuously read at 412 nm in a microplate reader. Data was recorded at 1 min. time intervals for 10 to 20 min. The data as was plotted as optical density (OD) versus time for each sample. The reaction velocity (V) was obtained in OD/min: determine the slope of a line fit to the linear portion of the data plot using an appropriate routine. Then using the equation above the inhibitor % activity remaining was calculated. The control was without inhibitor.

In assay [2] the test system is 081024 cells. Nature of the assay: BME cell invasion assay, 081024. Format: cell-based, human. The following applies: 1 μM, 24 h. How it is done:
(§1) To assess whether the ability of SEQ ID NO.1 to inhibit MMP-2 activity and, to a lesser extent, reduce the production of matrix proteinases and downregulate the expression of EMT markers, was of functional consequence in reducing the invasiveness of the GBM cells, the ability of the peptide was tested at the concentrations of 1, 10 and 100 μM (none of which are toxic to cells) to inhibit invasion of the GBM cells through a basement membrane. This assay, described in more detail below, is an in vitro surrogate for measurement of the in vivo invasion by tumour cells of their environment.
(§2) The cell invasion assay employs a simplified Boyden chamber-like design that consists of two chambers separated by a filter (an 8 μm polycarbonate (PC) membrane) coated with basement membrane or different extracellular matrix components. The cell suspension is placed in the top chamber and incubated in the presence of test media containing specific chemo-attractants in the bottom chamber. Cells migrate from the top chamber to the bottom of the filter by degrading the coating over the filter pores. Detection of cell invasion is quantified using Calcein AM. Cell dissociation/Calcein AM solution is placed in the bottom chamber to dissociate the migrating cells from the filter. Calcein AM is internalized by the cells, and intracellular-esterases cleave the aceto-methylester (AM) moiety. Free Calcein fluoresces brightly and is used to quantitate the number of cells that have invaded or migrated by comparison with a standard curve (In Vitro Technologies Pty Ltd, (https://lifescience.invitro.com.au/brands/r-and-d-systems/).
(§3) The filter was coated with PathClear® growth factor reduced BME. The selected peptides were applied to the cells in both upper and lower wells to make sure the concentration of peptides were the same and the chemoattractant was serum at a concentration of 2% (for adherent U87 & U251 cells) or growth factor mix required in the medium (for non- adherent, 081024 oncospheres).
(§4) Cell invasion was determined using CultureCoat® 96 Well Medium BME Cell Invasion assay. Briefly, the cells were pre-starved 24 h before harvest. Then seeding 25,000 per well of cell in the upper chamber with serum free medium together different concentration of peptide. The bottom chamber also added different concentration of peptides with 2% (V/V) serum for GBM adherent cells or growth factor mix for neurosphere cells as chemoattractant. After 24 h incubation, the invading cells were measured by Calcein AM and calculated based on standard curve.
(§5) The results are shown in Table 12, the results are expressed as % inhibition.

Assay [3] relates to U87 cells. Nature of the assay: BME cell invasion assay, U87. The settings on record: 1 μM, 24 h. Format: cell-based, human. How it is done:
as §1, §2, §3, §4, §5

Assay [4] relates to U251 cells. The experiment in a line: BME cell invasion assay, U251. Format: cell-based, human. The following applies: 1 μM, 24 h. Here is the method: as §1, §2, §3, §4, §5

A word on the remaining activity: it is the share of the control activity or signal that is left under treatment. For `COc1ccc(S(=O)(=O)N(CC(=O)NO)CC(C)C)cc1` [NNGH, N-isobutyl-N-(4-methoxyphenylsulfonyl) glycyl hydroxamic acid, reference compound], in assay [1] (1.3 μM), the remaining activity is given as 2.29%.

Regarding Chlorotoxin [reference compound], the remaining activity in assay [1] (1 μM, 1 h preincubation at 37° C.) worked out at 67.94%. For the same molecule, the “Invasion Inhibition Index (%)” value in assay [2] was found to be 45.0%; in assay [3], 39.5%; in assay [4], 28.50%.
